Data on one compound can be found in patent US20180185374A1, “INHIBITORS OF MTOR KINASE AS ANTI-VIRAL AGENTS” (THE TRUSTEES OF PRINCETON UNIVERSITY, priority 2009, published 2018).

Series [1] has as its system HCMV. In words: HCMV multistep growth in serum-starved human fibroblasts, cell-free virus by TCID50. The series is classed as cell-based, human cytomegalovirus.
The test system of series [2] is HCMV. In words: GFP marker expression from viral genome, percentage of infected cells. Type of series: cell-based, human cytomegalovirus. The following applies: 24 hpi; 250 nM. Here is the method: FIG. 2. […] Serum-starved confluent fibroblasts were infected with HCMV at a multiplicity of 3 PFU/cell. […] Control cultures received the vehicle in which Torin1 was dissolved (NT). At 2 hpi cells were harvested, and cell-associated viral DNA was quantified by real-time PCR analysis. Error bars represent the standard errors of the means from two independent experiments performed in duplicate. […] The level of IE1 was determined at 6 hpi by a Western blot assay using an IE1-specific monoclonal antibody. The image is representative of two independent experiments. […] The expression of a GFP marker gene present in the viral genome was monitored at 24 h after infection in the presence or absence of drug.

The subject of series [3] is HCMV. In words: UL99 late transcript level by qPCR. The series is classed as cell-based, human cytomegalovirus. The following applies: rapamycin 20 nM, Torin1 250 nM; 3 PFU/cell. (In general: Real-time PCR tracks product formation cycle by cycle.)
Series [4] has as its system 4EBP1. In words: 4EBP1 phosphorylation in HCMV-infected fibroblasts, Western blot. The series is classed as cell-based, human. The following applies: rapamycin 20 nM, Torin1 250 nM; 3 PFU/cell. Here is the method: FIG. 4. Rapamycin-resistant mTOR activity is required for 4EBP1 phosphorylation and eIF4F complex integrity during HCMV infection. Serum-starved confluent human fibroblasts were infected with HCMV at a multiplicity of 3 PFU/cell. […] (A) At 48 hpi the phosphorylation status of mTORC1 targets was assessed by Western blot assay by using antibodies to phosphorylated targets (4EBP1-PT^37/46 and rpS6-PS^235/6) and total proteins. Tubulin was assayed as a loading control. (B) Same as above (A) except that cells were harvested at the indicated times. (C and D) After mock infection (M) or infection with HCMV (WT) at a multiplicity of 3 PFU/cell, cultures were harvested at the indicated times. Equivalent amounts of protein from each sample were incubated with m^7GTP-Sepharose, and the isolated protein complexes were analyzed by Western blotting using the indicated antibodies to the eIF4F complex and 4EBP1. In all cases the results are representative of at least two independent experiments. lys, lysate.
HCMV infection induces mTORC1 activity, but the phosphorylation of mTORC1 targets is differentially sensitive to the mTORC1 inhibitor rapamycin. […] Total 4EBP1, rpS6, and tubulin levels were monitored to control for protein recovery. […]

In series [5] the test system is 4EBP1. In words: 4EBP1 phosphorylation in MCMV-infected MEFs, Western blot. Type of series: cell-based, mouse. The following applies: Torin1 250 nM. The protocol: FIG. 5. […] Fresh serum-free medium containing drugs was added every other day. At the indicated times, cell-free supernatants were harvested, and the amount of virus in the supernatant was quantified by the TCID50 method. Error bars represent the standard errors of the means form two independent experiments performed in duplicate. […] At 48 hpi the phosphorylation state of the indicated mTORC1 targets was analyzed by a Western blot assay by using antibodies to phosphorylated targets (4EBP1-PT^37/46 and rpS6-PS^235/6) and total proteins. The results are representative of three independent experiments.
FIG. 6. mTORC2 and its target, Akt, are not the source of rapamycin-resistant mTOR activity. […] At 6 days post infection the amount of MCMV in cell-free supernatants was determined by the TCID50 method. […] At 48 hpi, the phosphorylation state of mTORC1 targets was assessed by Western blotting using antibodies specific for the indicated proteins. (C) Confirmation of the genotype of Rictor-null MEFs. Total DNA was isolated from wild-type and Rictor-null MEFs, and the genotype was confirmed by use of PCR. (D) Same as above (A) except that Akt1- and Akt2-null MEFs were used. (E) Same as above (B) except that Akt1- and Akt2-null MEFs were used. For B and E, the error bars represent the standard errors of the means from at least two independent experiments, each performed in duplicate. For […], tubulin was assayed as a loading control. […] Protein from wild-type or mutant MEFs was analyzed by Western blotting by use of an antibody specific for Akt.
The identification of the functional roles of proteins in the mTOR signaling pathway has been facilitated by the generation of knockout mouse strains lacking individual mTOR components. […] Also as observed for HCMV (FIG. 4A), MCMV infection induced mTORC1 activity, as measured by the increased phosphorylation of rpS6. […]
We first investigated the requirement for mTORC2 for the replication of MCMV. […] Finally, that 4EBP1 was not detected in lysates of these cells by Western blot assay confirmed the phenotype of the MEFs.

A further series relates to γHV68. In words: γHV68 replication in MEFs, TCID50. The series is classed as cell-based, murine gammaherpesvirus 68. The following applies: 0.05 PFU/cell, 6 days post infection, rapamycin 20 nM, Torin1 250 nM.
For a further series, the system named is cells. The following applies: concentrations of up to 500 nM; previous reports; cited from earlier work.

pIC50: −log10 of the molar value.

As to `CCC(=O)N1CCN(c2ccc(-n3c(=O)ccc4cnc5ccc(-c6cnc7ccccc7c6)cc5c43)cc2C(F)(F)F)CC1` [Torin1], the “reduction of HCMV yield” value in the series on HCMV [1] (day 10, 0.05 PFU/cell, rapamycin 20 nM, Torin1 250 nM) is “about 160 fold”. Also, in the series with HCMV [1] (read-out: 50% inhibitory concentration (IC50) for production of HCMV progeny, 8 days post infection), the pIC50 was around 7.22. In addition, the “percentage of cells expressing GFP marker” value in the series on HCMV [2] is reported as “did not alter the percentage of cells”. The “levels of UL99 mRNA” value in the series on HCMV [3] is reported as “decreased the levels of UL99 mRNA”. For the same compound, the “phosphorylation of 4EBP1 during HCMV infection” value in the series on 4EBP1 [4] is recorded as “substantially blocked”. Moreover, the 4EBP1 phosphorylation result is recorded as “inhibited” in the series with 4EBP1 [5] (Akt1/Akt2-null MEFs) and “effectively inhibited” in the series on 4EBP1 [5] (Rictor-null MEFs, 48 hpi). For the same compound, the “phosphorylation of 4EBP1 in MCMV-infected MEFs” value with 4EBP1 [5] (wild-type MEFs, 48 hpi, rapamycin 20 nM, LY294002 20 μM) is reported as “inhibited”. Further, in the series with γHV68, the γHV68 replication entry is “inhibited both viruses”. Also, the cell killing result in the series on cells is listed as “does not kill cells”.
